{"source": "paper PMC7898822", "about": "“RNA‐PROTACs: Degraders of RNA‐Binding Proteins” (Angewandte Chemie (International Ed. in English), 2020)", "tested_on": "Lin28B", "experiment": "Western blot of Lin28B in K562 cells", "format": "cell-based, human", "conditions": "48 h", "description": "Finally, we tested RNA‐PROTACs for their ability to degrade their target in two cell lines: the embryonic NT2/D1 cell line, which expresses high levels of Lin28A, ^[13a] and K562 cells which express Lin28A and Lin28B. […] Suppression of the target was not quantitative, as is often observed from testing PROTAC reagents without an optimization of the targeting ligand, the linker and the E3 system. Furthermore, there was no statistical difference in the activity of the 7‐mer and 11‐mer reagents. […] The reagents had no discernible effect on cell toxicity (Figure S11). […] Finally, we co‐treated K562 cells with ORN3P1 and MG132, a reversible inhibitor of the 26S proteasome. […]\noligonucleotides ([…]) into 15N-labeled Lin28-ZnF12 in 10 mM HEPES pH 7.0, 1.5 mM β-mercaptoethanol, 0.15 mM ZnCl2 and monitored by 1H-15N-HSQC at 303K.\nFluorescence Polarization Assay. Fluorescence polarization titration assay was carried out by titrating Lin28_ZKD protein into FAM-labeled PreE-let-7 at a 10 nM final concentration and buffer (10 mM HEPES, 150 mM NaCl, 10 µM ZiCl2, pH 7,4). […] The fluorescence anisotropy was measured on a Spectra Max Paradigm multimode plate reader (Molecular Devices). The fluorescence polarization competition assay was carried out in a similar fashion, except compounds were titrated into buffer containing Lin28_ZKD and FAM-labeled preE-let-7. […]", "data": [{"smiles": "CC[C@H](C)[C@H](NC(=O)[C@H](Cc1ccc(O)cc1)NC(=O)[C@@H]1C[C@@H](O)CN1C(=O)[C@H](C)NC(=O)[C@H](CC(C)C)NC(=O)CCCCCNC(=O)[C@@H](N)CSC1CC(=O)N(CCOP(=O)(S)OC[C@H]2O[C@@H](n3cnc4c(N)ncnc43)[C@H](OCCOC)[C@@H]2OP(=O)(S)OC[C@H]2O[C@@H](n3cnc4c(=O)[nH]c(N)nc43)[C@H](OCCOC)[C@@H]2OP(=O)(S)OC[C@H]2O[C@@H](n3cnc4c(=O)[nH]c(N)nc43)[C@H](OCCOC)[C@@H]2OP(=O)(S)OC[C@H]2O[C@@H](n3cnc4c(N)ncnc43)[C@H](OCCOC)[C@@H]2OP(=O)(S)OC[C@H]2O[C@@H](n3cnc4c(=O)[nH]c(N)nc43)[C@H](OCCOC)[C@@H]2OP(=O)(S)OC[C@H]2O[C@@H](n3cnc4c(N)ncnc43)[C@H](OCCOC)[C@@H]2OP(=O)(S)OC[C@H]2O[C@@H](n3cc(C)c(=O)[nH]c3=O)[C@H](OCCOC)[C@@H]2O)C1=O)C(=O)O", "note": "(stereo partly shown) [ORN3P1]", "values": [{"measurement": "effect on Lin28B", "value": "little effect on Lin28B"}]}]}
